# Measurements published in patent US10864216B2, “Phenothiazine diaminium salts and their use” (WisTa Laboratories Ltd., priority 2011, dated 2020).
# Marks after values point to notes of the source that are not given here.
# Legend:
# [1] = target: T1, truncated tau (amino acids 297-391) in solution binding to solid-phase bound truncated tau (residues 297-390) (Homo sapiens, UniProt P10636); test: Solid phase assay for tau aggregation (tau-tau binding, B50); settings: concentration at which tau-tau binding is decreased by 50%; mean ± SE
# T1 construct: made in house
# T1 sequence (P10636 614-708): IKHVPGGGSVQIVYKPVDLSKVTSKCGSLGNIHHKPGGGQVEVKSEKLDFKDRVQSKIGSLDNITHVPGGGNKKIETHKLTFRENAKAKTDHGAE
# T1 sequence (P10636 614-707): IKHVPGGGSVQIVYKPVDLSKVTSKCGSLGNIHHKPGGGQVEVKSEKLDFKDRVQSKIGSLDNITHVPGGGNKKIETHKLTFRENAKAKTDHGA
# Description: The tau-tau aggregation assay uses purified recombinant tau fragments in a solid-phase immunoassay. Methods are described in detail in e.g. WO 96/30766. Briefly, the assay measures the binding of truncated tau (amino acids 297-391) in solution to solid-phase bound truncated tau (residues 297-390). Binding of the former is detected with the antibody mAb 423, which specifically recognises peptides containing a C-terminal Glu-391 residue. The Tau complex formed in vitro is similar to the aggregated complex that forms in Alzheimer's disease as a consequence of the stability of the pathological Tau-Tau binding interaction through a 94/95-amino acid repeat domain (residues 297-390), found in the proteolytically stable core of the paired helical filament.
# The B50 value (expressed as mean±SE) is determined as the concentration of compound at which tau-tau binding is decreased by 50%.
# [2] = target: full-length human tau protein (htau40) and truncated tau (295-390, dGA) in 3T6 mouse cells (Homo sapiens, UniProt P10636); test: Cell-based tau aggregation assay
# [3] = Solubility of LMT salts in aqueous HCl solutions at 37° C.; format: physicochemical; settings: lower limit complete dissolution, upper limit saturation
# Procedure: Two aqueous solutions (pH 2.00 and 3.01 at 21.4° C.) were prepared by carefully adding HCl (5 M) to deionised water. In each experiment a 5 ml aliquot of one of the aforementioned solutions was heated to 37° C. […] This step was repeated until no further dissolution took place.
# rats = test: Studies on the hemopoietic system (methemoglobinemia), rat; format: in vivo
# [4] = tested on: rat, stomach (non glandular); test: Gastric irritation: 28-day rat study with MTC or LMT.2HBr; format: in vivo; parameters: key to Gastritis, grade 3 (moderate): incidence / Inflammatory cell infiltration, grade 1 (minimal): incidence / Gastritis, grade 1 (minimal): incidence / Gastritis, grade 2 (slight): incidence / Gastritis, grade 3: incidence predicted with 10 per group / Gastritis, grade 1: incidence predicted with 10 per group / Gastritis, grade 2: incidence predicted with 10 per group: “—” = finding not present; 1 = minimal; 2 = slight; 3 = moderate; 4 = moderately severe; 5 = severe; settings: 90 mg/kg/day; for Gastritis, total incidence predicted with 10 per group: number of animals of 10; for Gastritis, grade 1: incidence predicted with 10 per group / Gastritis, grade 2: incidence predicted with 10 per group / Gastritis, grade 3: incidence predicted with 10 per group: scaled from 5 to 10 examined
# female Wistar rats = test: 14 day oral administration to rats: toxicology and neutrophil response; format: in vivo; settings: for Neutrophils (total neutrophils as percentage of total white cells) / Dose-related deaths / Early neutrophils (frequency of presence of immature neutrophils per animal group): 14 days oral; for Neutrophils (total neutrophils as percentage of total white cells): 95 mg MT/kg/day Days 1-10, 60 mg MT/kg/day Days 11-14; for Dose-related deaths: animal numbers per group of 8 rats; for Early neutrophils (frequency of presence of immature neutrophils per animal group): animals per group of 8
# Description: Table: Neutrophil response in rats following 14 day oral administration of different salt forms of LMT.
# rat = test: 6-month study of LMT.2HBr in the rat; format: in vivo; settings: high dose 45 mg MT/kg/day
# Description: The decreased neutrophils or neutropaenia observed after LMT.2HBr although reversible would make patients more susceptible to bacterial infections as their primary role is in destruction of bacteria.
# minipigs = test: Studies on the hemopoietic system (methemoglobinemia), minipig; format: in vivo
# Procedure: Studies on the hemopoietic system were performed in rat, monkey and minipig.
# [5] = aqueous HCl solution pH 2.00 (21.4° C.)
# [6] = aqueous HCl solution pH 3.01 (21.4° C.)
# [7] = female rats, 28-day, terminal kill, 5 examined, cell = number of animals
# [8] = female rats, cell = number of animals
# [9] = male rats, 28-day, terminal kill, 5 examined, cell = number of animals
# [10] = male rats, cell = number of animals
smiles,measurement,setting,value
"O=S(=O)(O)CCS(=O)(=O)O [EDSA, ethanedisulfonic acid, reference compound]",IC50,[1],> 500 µM
"CN(C)c1ccc2c(c1)Sc1cc(N(C)C)ccc1N2 [LMT.2EsOH, N,N,N′,N′-Tetramethyl-10H-phenothiazine-3,7-diaminium bis(ethanesulfonate)]","THx, therapeutic index (THx = LD50/EC50)",[2]; listed as LMT•2EsOH,100
same,EC50 (μM),[2]; listed as LMT•2EsOH,0.52 ± 0.13 (n = 3) μM
same,IC50,[1],297 ± 75.1 µM
"CN(C)c1ccc2c(c1)Sc1cc(N(C)C)ccc1N2 [LMT.2HBr, N,N,N′,N′-tetramethyl-10H-phenothiazine-3,7-diaminium di(bromide)]","THx, therapeutic index (THx = LD50/EC50)",[2]; listed as LMT•2HBr,92
same,EC50 (μM),[2]; listed as LMT•2HBr,0.66 ± 0.15 (n = 8) μM
same,Solubility g/5 ml (37° C.),[3]; [5],4.822-5.096 g/5 ml
same,Solubility g/5 ml (37° C.),[3]; [6],4.726-5.236 g/5 ml
same,IC50,[1],472 ± 27.6 µM
same,Lowest dose at which methemoglobinemia was observed,rats,15 mg MT/kg/day
same,"Gastritis, grade 1 (minimal): incidence",[4]; [7],—
same,"Gastritis, grade 2 (slight): incidence",[4]; [7],1
same,"Gastritis, grade 3 (moderate): incidence",[4]; [7],1
same,"Inflammatory cell infiltration, grade 1 (minimal): incidence",[4]; [7],—
same,"Gastritis, total incidence predicted with 10 per group",[4]; female rats,4
same,"Gastritis, grade 1: incidence predicted with 10 per group",[4]; [8],—
same,"Gastritis, grade 2: incidence predicted with 10 per group",[4]; [8],2
same,"Gastritis, grade 3: incidence predicted with 10 per group",[4]; [8],2
same,"Gastritis, grade 1 (minimal): incidence",[4]; [9],1
same,"Gastritis, grade 2 (slight): incidence",[4]; [9],—
same,"Gastritis, grade 3 (moderate): incidence",[4]; [9],1
same,"Gastritis, total incidence predicted with 10 per group",[4]; male rats,4
same,"Gastritis, grade 1: incidence predicted with 10 per group",[4]; [10],2
same,"Gastritis, grade 2: incidence predicted with 10 per group",[4]; [10],—
same,"Gastritis, grade 3: incidence predicted with 10 per group",[4]; [10],2
same,Neutropaenia in prepared blood smears (mature neutrophils),female Wistar rats; 14 days,marked depletion of mature neutrophils
same,Numbers of neutrophilic granulocytes in the bone marrow,female Wistar rats; 14 days,considerably greater
same,Treatment-related deaths,female Wistar rats; 14 days,Treatment-related deaths occurred
same,Neutrophils (total neutrophils as percentage of total white cells),female Wistar rats,3.00%*
same,Dose-related deaths,female Wistar rats,2/8
same,Early neutrophils (frequency of presence of immature neutrophils per animal group),female Wistar rats,8/8
same,Mature neutrophils and granulocytes in the bone marrow,rat,Decreased numbers of mature neutrophils and granulocytes
same,Lowest dose at which methemoglobinemia was observed,minipigs,10 mg MT/kg/day
"CN(C)c1ccc2c(c1)Sc1cc(N(C)C)ccc1N2.Cl.Cl [LMT.2HCl, N,N,N′,N′-tetramethyl-10H-phenothiazine-3,7-diaminium dichloride]","THx, therapeutic index (THx = LD50/EC50)",[2],102
same,Solubility g/5 ml (37° C.),[3]; [5],4.404-4.961 g/5 ml
same,Solubility g/5 ml (37° C.),[3]; [6],4.978-6.029 g/5 ml
same,IC50,[1],361 ± 38.2 µM
same,Neutropaenia in prepared blood smears (mature neutrophils),female Wistar rats; 14 days,no decrease
same,Neutrophils (total neutrophils as percentage of total white cells),female Wistar rats,19.90%
same,Dose-related deaths,female Wistar rats,0/8
same,Early neutrophils (frequency of presence of immature neutrophils per animal group),female Wistar rats,2/8
"CN(C)c1ccc2c(c1)Sc1cc(N(C)C)ccc1N2 [LMT.2TsOH, N,N,N′,N′-Tetramethyl-10H-phenothiazine-3,7-diaminium bis(p-toluenesulfonate)]","THx, therapeutic index (THx = LD50/EC50)",[2]; bis(p-toluenesulfonate),140
same,IC50,[1],296 ± 37.9 µM
"CN(C)c1ccc2c(c1)Sc1cc(N(C)C)ccc1N2 [LMT.EDSA, N,N,N′,N′-Tetramethyl-10H-phenothiazine-3,7-diaminium ethanedisulfonate]","THx, therapeutic index (THx = LD50/EC50)",[2]; listed as LMT•EDSA,115
same,EC50 (μM),[2]; listed as LMT•EDSA,0.68 ± 0.32 (n = 4) μM
same,IC50,[1],400 ± 17.6 µM
"CN(C)c1ccc2c(c1)Sc1cc(N(C)C)ccc1N2 [LMT.NDSA, N,N,N′,N′-Tetramethyl-10H-phenothiazine-3,7-diaminium naphthalenedisulfonate]","THx, therapeutic index (THx = LD50/EC50)",[2]; listed as LMT•NDSA,108
same,EC50 (μM),[2]; listed as LMT•NDSA,0.71 ± 0.34 (n = 4) μM
same,IC50,[1],334 ± 63.2 µM
"CS(=O)(=O)O [MSA, methansulfonic acid, reference compound]",IC50,[1],> 500 µM
